Structures are written as SMILES.

A word on the Ki: it is the equilibrium dissociation constant of an inhibitor or competing ligand from its target. A high value points to a looser hold on the target.

Sequence of Bcl-2 protein (P10415 whole entry): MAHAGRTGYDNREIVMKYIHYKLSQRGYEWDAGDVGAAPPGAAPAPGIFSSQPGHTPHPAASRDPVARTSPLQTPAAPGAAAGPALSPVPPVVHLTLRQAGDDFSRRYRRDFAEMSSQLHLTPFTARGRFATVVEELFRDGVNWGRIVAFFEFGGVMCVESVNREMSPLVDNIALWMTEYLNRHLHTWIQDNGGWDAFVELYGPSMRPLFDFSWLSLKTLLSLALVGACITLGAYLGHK

This experiment concerns the target Bcl-2 protein (Homo sapiens (Human), UniProt P10415). In words: Bcl-2 binding TR-FRET (Time-Resolved Fluorescence-Resonance-Energy-Transfer) assay. Conditions: inhibition constant for binding to Bcl-2 protein. The source says: The smaller the Ki value, the greater is the binding affinity.
For orientation: Time-resolved FRET reads energy transfer from a long-lived donor to a nearby acceptor.
On to `CC1(C)CCC(CN2CCN(c3ccc(C(=O)NS(=O)(=O)c4cnc(NCC5CCOCC5)c([N+](=O)[O-])c4)c(Oc4cnc5[nH]ccc5c4)c3)CC2)=C(c2ccc(Cl)cc2)C1` [Compound 364, 4-(4-{[2-(4-chlorophenyl)-4,4-dimethylcyclohex-1-en-1-yl]methyl}piperazin-1-yl)-N-({5-nitro-6-[(tetrahydro-2H-pyran-4-ylmethyl)amino]pyridin-3-yl}sulfonyl)-2-(1H-pyrrolo[2,3-b]pyridin-5-yloxy)benzamide], for which the Ki is less than 0.01 nM.
Next, `COCC1CCC(CNc2ccc(S(=O)(=O)NC(=O)c3ccc(N4CCN(CC5=C(c6ccc(Cl)cc6)CC(C)(C)CC5)CC4)cc3Oc3cnc4[nH]ccc4c3)cc2[N+](=O)[O-])CC1` (stereo not shown) [Compound 374, 4-(4-{[2-(4-chlorophenyl)-4,4-dimethylcyclohex-1-en-1-yl]methyl}piperazin-1-yl)-N-{[4-({[4-(methoxymethyl)cyclohexyl]methyl}amino)-3-nitrophenyl]sulfonyl}-2-(1H-pyrrolo[2,3-b]pyridin-5-yloxy)benzamide]: less than 0.001 nM; `C[C@]1(O)CC[C@@H](COc2ncc(S(=O)(=O)NC(=O)c3ccc(N4CCN(CC5=C(c6ccc(Cl)cc6)CC6(CC5)CC6)CC4)cc3Oc3cnc4[nH]ccc4c3)cc2Cl)CC1` [Compound 341, N-({5-chloro-6-[(trans-4-hydroxy-4-methylcyclohexyl)methoxy]pyridin-3-yl}sulfonyl)-4-(4-{[5-(4-chlorophenyl)spiro[2.5]oct-5-en-6-yl]methyl}piperazin-1-yl)-2-(1H-pyrrolo[2,3-b]pyridin-5-yloxy)benzamide]: less than 0.01 nM.
Molecule `CC1(C)CCC(CN2CCN(c3ccc(C(=O)NS(=O)(=O)c4ccc(OC[C@H]5CCN(C6COC6)C5)c([N+](=O)[O-])c4)c(Oc4cnc5[nH]ccc5c4)c3)CC2)=C(c2ccc(Cl)cc2)C1` [Compound 184, 4-(4-{[2-(4-chlorophenyl)-4,4-dimethylcyclohex-1-en-1-yl]methyl}piperazin-1-yl)-N-[(3-nitro-4-{[(3S)-1-oxetan-3-ylpyrrolidin-3-yl]methoxy}phenyl)sulfonyl]-2-(1H-pyrrolo[2,3-b]pyridin-5-yloxy)benzamide] came in with a Ki of less than 0.01 nM.
Next, `CC1(C)CCC(CN2CCN(c3ccc(C(=O)NS(=O)(=O)c4ccc(N[C@H]5CCCN(C6CCOCC6)C5)c([N+](=O)[O-])c4)c(Oc4cnc5[nH]ccc5c4)c3)CC2)=C(c2ccc(Cl)cc2)C1` [Compound 105, 4-(4-{[2-(4-chlorophenyl)-4,4-dimethylcyclohex-1-en-1-yl]methyl}piperazin-1-yl)-N-[(3-nitro-4-{[(3S)-1-tetrahydro-2H-pyran-4-ylpiperidin-3-yl]amino}phenyl)sulfonyl]-2-(1H-pyrrolo[2,3-b]pyridin-5-yloxy)benzamide]: less than 0.01 nM; `CC1(C)CCC(CN2CCN(c3ccc(C(=O)NS(=O)(=O)c4ccc(NCCCNC5CC5)c([N+](=O)[O-])c4)c(Oc4cnc5[nH]ccc5c4)c3)CC2)=C(c2ccc(Cl)cc2)C1` [Compound 291, 4-(4-{[2-(4-chlorophenyl)-4,4-dimethylcyclohex-1-en-1-yl]methyl}piperazin-1-yl)-N-[(4-{[3-(cyclopropylamino)propyl]amino}-3-nitrophenyl)sulfonyl]-2-(1H-pyrrolo[2,3-b]pyridin-5-yloxy)benzamide]: less than 0.01 nM; `CC(=O)N1CCOC(CNc2ccc(S(=O)(=O)NC(=O)c3ccc(N4CCN(CC5=C(c6ccc(Cl)cc6)CC(C)(C)CC5)CC4)cc3Oc3cnc4[nH]ccc4c3)cc2[N+](=O)[O-])C1` (stereo not shown) [Compound 136, N-[(4-{[(4-acetylmorpholin-2-yl)methyl]amino}-3-nitrophenyl)sulfonyl]-4-(4-{[2-(4-chlorophenyl)-4,4-dimethylcyclohex-1-en-1-yl]methyl}piperazin-1-yl)-2-(1H-pyrrolo[2,3-b]pyridin-5-yloxy)benzamide]: less than 0.01 nM.

These data come from patent publication US10213433B2 (AbbVie Inc., priority 2010, dated 2019).
